Reference: the NIST ThermoML archive (doi:10.1016/j.jct.2005.01.015)
± gives the expanded uncertainty stated by the source.

Assay: activity coefficient (dimensionless); of the first substance listed, at infinite dilution; xn = mol fraction of the nth substance listed
Conditions: 101 kPa, Liquid, Chromatography, x1 = 0

Row | Compound | activity coefficient (298.15 K) | activity coefficient (303.15 K) | activity coefficient (308.15 K)
1 | CO [methanol] + CCCCn1cc[n+](C)c1.COCCOCCOS(=O)(=O)[O-] | 0.345 ± 0.035 | 0.342 ± 0.035 | 0.337 ± 0.035
2 | C1CCCCC1 [cyclohexane] + CCCCn1cc[n+](C)c1.COCCOCCOS(=O)(=O)[O-] | 34.4 ± 1.6 | 31.5 ± 1.5 | 30.3 ± 1.4
3 | ClC(Cl)(Cl)Cl [tetrachloromethane] + CCCCn1cc[n+](C)c1.COCCOCCOS(=O)(=O)[O-] | 2.81 ± 0.13 | 2.85 ± 0.13 | 2.91 ± 0.13
4 | Cc1ccccc1 [toluene] + CCCCn1cc[n+](C)c1.COCCOCCOS(=O)(=O)[O-] | 3.72 ± 0.17 | 3.69 ± 0.17 | 3.66 ± 0.17
5 | CCCCC [pentane] + CCCCn1cc[n+](C)c1.COCCOCCOS(=O)(=O)[O-] | 61.7 ± 2.9 | 57.1 ± 2.7 | 54.9 ± 2.6
6 | c1ccccc1 [benzene] + CCCCn1cc[n+](C)c1.COCCOCCOS(=O)(=O)[O-] | 2.04 ± 0.09 | 2.02 ± 0.09 | 2.03 ± 0.09
7 | CCCCCC [hexane] + CCCCn1cc[n+](C)c1.COCCOCCOS(=O)(=O)[O-] | 80.9 ± 3.8 | 74.1 ± 3.5 | 71.1 ± 3.3

Further lines, results first:

Row | activity coefficient (298.15 K) | activity coefficient (303.15 K) | activity coefficient (308.15 K) | Compound
8 | 111 ± 5.2 | 100 ± 4.7 | 94.5 ± 4.4 | CCCCCCC [heptane] + CCCCn1cc[n+](C)c1.COCCOCCOS(=O)(=O)[O-]
9 | 4.83 ± 0.22 | 4.74 ± 0.22 | 4.91 ± 0.22 | C#CCCCC [1-hexyne] + CCCCn1cc[n+](C)c1.COCCOCCOS(=O)(=O)[O-]
10 | 35.1 ± 1.6 | 32.9 ± 1.5 | 31.4 ± 1.5 | C=CCCCC [hex-1-ene] + CCCCn1cc[n+](C)c1.COCCOCCOS(=O)(=O)[O-]
11 | 156 ± 7.3 | 140 ± 6.6 | 130 ± 6.1 | CCCCCCCC [octane] + CCCCn1cc[n+](C)c1.COCCOCCOS(=O)(=O)[O-]
12 | 74.9 ± 3.5 | 69.9 ± 3.3 | 67.1 ± 3.1 | C=CCCCCCC [oct-1-ene] + CCCCn1cc[n+](C)c1.COCCOCCOS(=O)(=O)[O-]
13 | 22.7 ± 1.1 | 20.9 ± 1 | 20.5 ± 0.9 | C1CCCC1 [cyclopentane] + CCCCn1cc[n+](C)c1.COCCOCCOS(=O)(=O)[O-]
14 | 41.8 ± 1.9 | 38.2 ± 1.8 | 36.4 ± 1.7 | C1CCCCCC1 [cycloheptane] + CCCCn1cc[n+](C)c1.COCCOCCOS(=O)(=O)[O-]
15 | 7.37 ± 0.34 | 7.22 ± 0.33 | 7.42 ± 0.34 | C#CCCCCC [1-heptyne] + CCCCn1cc[n+](C)c1.COCCOCCOS(=O)(=O)[O-]
16 | 11.7 ± 0.5 | 11.4 ± 0.5 | 11.6 ± 0.5 | C#CCCCCCC [1-octyne] + CCCCn1cc[n+](C)c1.COCCOCCOS(=O)(=O)[O-]
